Measured values published in patent US10577363B2, “Substituted piperidine compounds” (EPIZYME, INC., priority 2014, dated 2020).

Molecular target: SMYD3 (Homo sapiens (Human), UniProt Q9H7B4)
Assay: SMYD3 biochemical assay (SPA, 3H-SAM methylation of MEKK2 protein substrate)
Details: read-out: SMYD3 Biochem IC50 (μM)*
How it was run: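 SPA methyltransferase format: tag-cleaved human SMYD3, insect-cell GST-MEKK2 protein substrate, 3H-SAM donor, 30 min RT enzyme–compound preincubation, 100 uM cold SAM quench.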

| Compound | IC50 [µM] |
| --- | --- |
| C[C@H]1C[C@H](NC(=O)c2cc(C3CC3)on2)CCN1S(=O)(=O)c1ccc(Cl)nc1 [compound 287, N-((2S,4R)-1-((6-chloropyridin-3-yl)sulfonyl)-2-methylpiperidin-4-yl)-5-cyclopropylisoxazole-3-carboxamide] | > 10 |
| C[C@H]1C[C@H](NC(=O)c2cc(C3CC3)on2)CCN1S(=O)(=O)N1CCCC1 [compound 288, 5-cyclopropyl-N-((2S,4R)-2-methyl-1-(pyrrolidin-1-ylsulfonyl)piperidin-4-yl)isoxazole-3-carboxamide] | > 10 |
| CNS(=O)(=O)N1CC[C@@H](NC(=O)c2cc(C3CC3)on2)C[C@@H]1C [compound 289, 5-cyclopropyl-N-((2S,4R)-2-methyl-1-(N-methylsulfamoyl)piperidin-4-yl)isoxazole-3-carboxamide] | > 10 |
| COC(=O)CCS(=O)(=O)N1CC[C@@H](NC(=O)c2cc(C3CC3)on2)C[C@@H]1C [compound 290, methyl 3-(((2S,4R)-4-(5-cyclopropylisoxazole-3-carboxamido)-2-methylpiperidin-1-yl)sulfonyl)propanoate] | > 10 |
| C[C@H]1C[C@H](NC(=O)c2cc(C3CC3)on2)CCN1S(=O)(=O)CCC(F)(F)F [compound 292, 5-cyclopropyl-N-((2S,4R)-2-methyl-1-((3,3,3-trifluoropropyl)sulfonyl)piperidin-4-yl)isoxazole-3-carboxamide] | > 10 |
| CC(C)OCCS(=O)(=O)N1CC[C@@H](NC(=O)c2cc(C3CC3)on2)C[C@H]1C [compound 296, 5-cyclopropyl-N-((2R,4R)-1-((2-isopropoxyethyl)sulfonyl)-2-methylpiperidin-4-yl)isoxazole-3-carboxamide] | 5.97 |
| CC[C@@H]1CN(C(=O)CCCN)CC[C@@H]1NC(=O)c1cc(C2CC2)on1 [compound 297, N-((3R,4S)-1-(4-aminobutanoyl)-3-ethylpiperidin-4-yl)-5-cyclopropylisoxazole-3-carboxamide] | 1.8 |
| CC[C@@H]1CN(C(=O)CCCN)CC[C@H]1NC(=O)c1cc(C2CC2)on1 [compound 298, N-((3R,4R)-1-(4-aminobutanoyl)-3-ethylpiperidin-4-yl)-5-cyclopropylisoxazole-3-carboxamide] | 6.1 |
| CC[C@H]1CN(C(=O)CCCN)CC[C@H]1NC(=O)c1cc(C2CC2)on1 [compound 299, N-((3S,4R)-1-(4-aminobutanoyl)-3-ethylpiperidin-4-yl)-5-cyclopropylisoxazole-3-carboxamide] | 0.989 |
| CC[C@H]1CN(C(=O)CCCN)CC[C@@H]1NC(=O)c1cc(C2CC2)on1 [compound 300, N-((3S,4S)-1-(4-aminobutanoyl)-3-ethylpiperidin-4-yl)-5-cyclopropylisoxazole-3-carboxamide] | 3.6 |
| NCCCC(=O)N1CCC(NC(=O)c2cc(C3CC3)on2)CC12CCCCC2 (centres unmarked) [compound 301, N-(1-(4-aminobutanoyl)-1-azaspiro[5.5]undecan-4-yl)-5-cyclopropylisoxazole-3-carboxamide] | 6.47 |
| CC[C@@H]1CC(NC(=O)c2cc(C3CC3)on2)C[C@H](CC)N1C(=O)CCCN (stereo partly drawn) [compound 302, N-((2S,6R)-1-(4-aminobutanoyl)-2,6-diethylpiperidin-4-yl)-5-cyclopropylisoxazole-3-carboxamide] | 6.93 |
| CC1CN(C(=O)[C@H]2CC[C@H](N)CC2)CC(C)C1NC(=O)c1cc(C2CC2)on1 (some centres unmarked) [compound 303, N-(1-((1r,4r)-4-aminocyclohexane-1-carbonyl)-3,5-dimethylpiperidin-4-yl)-5-cyclopropylisoxazole-3-carboxamide] | 1.78 |
| N[C@H]1CC[C@H](C(=O)N2CCC(NC(=O)c3cc(C4CC4)on3)C(C(F)(F)F)C2)CC1 (some centres unmarked) [compound 304, N-(1-((1r,4r)-4-aminocyclohexane-1-carbonyl)-3-(trifluoromethyl)piperidin-4-yl)-5-cyclopropylisoxazole-3-carboxamide] | 2.04 |
| C[C@H](C(=O)N1CC[C@@H](NC(=O)c2cc(C3CC3)on2)C[C@H]1C)C1CCNCC1 [compound 305, 5-cyclopropyl-N-((2R,4R)-2-methyl-1-((S)-2-(piperidin-4-yl)propanoyl)piperidin-4-yl)isoxazole-3-carboxamide] | 1.17 |
| C[C@@H]1C[C@H](NC(=O)c2cc(C3CC3)on2)CCN1C(=O)[C@H](C)C1CCNCC1 [compound 306, 5-cyclopropyl-N-((2R,4R)-2-methyl-1-((R)-2-(piperidin-4-yl)propanoyl)piperidin-4-yl)isoxazole-3-carboxamide] | 0.852 |
| C[C@H](C(=O)N1CC[C@H](NC(=O)c2cc(C3CC3)on2)C[C@H]1C)C1CCNCC1 [compound 307, 5-cyclopropyl-N-((2R,4S)-2-methyl-1-((S)-2-(piperidin-4-yl)propanoyl)piperidin-4-yl)isoxazole-3-carboxamide] | 0.928 |
| C[C@@H]1C[C@@H](NC(=O)c2cc(C3CC3)on2)CCN1C(=O)[C@H](C)C1CCNCC1 [compound 308, 5-cyclopropyl-N-((2R,4S)-2-methyl-1-((R)-2-(piperidin-4-yl)propanoyl)piperidin-4-yl)isoxazole-3-carboxamide] | 0.179 |

| Compound | IC50 [µM] |
| --- | --- |
| C[C@H]1C[C@H](NC(=O)c2cc(C3CC3)on2)CCN1C(=O)CC(C)(C)CN [compound 311, N-((2S,4R)-1-(4-amino-3,3-dimethylbutanoyl)-2-methylpiperidin-4-yl)-5-cyclopropylisoxazole-3-carboxamide] | 1.62 |
| C[C@@H]1C[C@H](NC(=O)c2cc(C3CC3)on2)CCN1C(=O)CC(C)(C)CN [compound 312, N-((2R,4R)-1-(4-amino-3,3-dimethylbutanoyl)-2-methylpiperidin-4-yl)-5-cyclopropylisoxazole-3-carboxamide] | 0.416 |
| C[C@@H]1C[C@@H](NC(=O)c2cc(C3CC3)on2)CCN1C(=O)CC(CN)c1ccccc1 (stereo partly drawn) [compound 313, N-((2R,4S)-1-(4-amino-3-phenylbutanoyl)-2-methylpiperidin-4-yl)-5-cyclopropylisoxazole-3-carboxamide] | 5.02 |
| C[C@H]1C[C@@H](NC(=O)c2cc(C3CC3)on2)CCN1S(=O)(=O)c1ccc(Cl)nc1 [compound 318, N-((2S,4S)-1-((6-chloropyridin-3-yl)sulfonyl)-2-methylpiperidin-4-yl)-5-cyclopropylisoxazole-3-carboxamide] | 1.88 |
| CCOC(=O)CS(=O)(=O)N1CC[C@H](NC(=O)c2cc(C3CC3)on2)C[C@H]1C [compound 320, ethyl 2-(((2R,4S)-4-(5-cyclopropylisoxazole-3-carboxamido)-2-methylpiperidin-1-yl)sulfonyl)acetate] | > 10 |
| C[C@@H]1C[C@@H](NC(=O)c2cc(C3CC3)on2)CCN1S(=O)(=O)c1ccccn1 [compound 321, 5-cyclopropyl-N-((2R,4S)-2-methyl-1-(pyridin-2-ylsulfonyl)piperidin-4-yl)isoxazole-3-carboxamide] | 4.47 |
| CCCS(=O)(=O)N1CC[C@@H](NC(=O)c2cc(C3CC3)on2)C[C@@H]1C [compound 322, 5-cyclopropyl-N-((2S,4R)-2-methyl-1-(propylsulfonyl)piperidin-4-yl)isoxazole-3-carboxamide] | > 10 |
| CC(C)CS(=O)(=O)N1CC[C@@H](NC(=O)c2cc(C3CC3)on2)C[C@@H]1C [compound 323, 5-cyclopropyl-N-((2S,4R)-1-(isobutylsulfonyl)-2-methylpiperidin-4-yl)isoxazole-3-carboxamide] | > 10 |
| C[C@H]1C[C@H](NC(=O)c2cc(C3CC3)on2)CCN1S(=O)(=O)N1CCN(C)CC1 [compound 324, 5-cyclopropyl-N-((2S,4R)-2-methyl-1-((4-methylpiperazin-1-yl)sulfonyl)piperidin-4-yl)isoxazole-3-carboxamide] | 1.65 |
| C[C@H]1C[C@H](NC(=O)c2cc(C3CC3)on2)CCN1S(=O)(=O)Cc1cccnc1 [compound 325, 5-cyclopropyl-N-((2S,4R)-2-methyl-1-((pyridin-3-ylmethyl)sulfonyl)piperidin-4-yl)isoxazole-3-carboxamide] | > 10 |
| C[C@H]1C[C@H](NC(=O)c2cc(C3CC3)on2)CCN1S(=O)(=O)CCc1ccccc1 [compound 326, 5-cyclopropyl-N-((2S,4R)-2-methyl-1-(phenethylsulfonyl)piperidin-4-yl)isoxazole-3-carboxamide] | > 10 |
| COCCCS(=O)(=O)N1CC[C@@H](NC(=O)c2cc(C3CC3)on2)C[C@@H]1C [compound 327, 5-cyclopropyl-N-((2S,4R)-1-((3-methoxypropyl)sulfonyl)-2-methylpiperidin-4-yl)isoxazole-3-carboxamide] | > 10 |
| CC1CN(C(=O)CCCN)CC(C)C1NC(=O)c1cc(C2CC2)on1 (centres unmarked) [compound 332, N-(1-(4-aminobutanoyl)-3,5-dimethylpiperidin-4-yl)-5-cyclopropylisoxazole-3-carboxamide] | 2.53 |
| C[C@H]1C[C@@H](NC(=O)c2cc(C3CC3)on2)CCN1C(=O)CC(CN)c1ccccc1 (stereo partly drawn) [compound 338, N-((2S,4S)-1-(4-amino-3-phenylbutanoyl)-2-methylpiperidin-4-yl)-5-cyclopropylisoxazole-3-carboxamide] | 0.842 |
| C[C@H]1C[C@H](NC(=O)c2cc(C3CC3)on2)CCN1C(=O)CC(CN)c1ccccc1 (stereo partly drawn) [compound 339, N-((2S,4R)-1-(4-amino-3-phenylbutanoyl)-2-methylpiperidin-4-yl)-5-cyclopropylisoxazole-3-carboxamide] | 4.67 |
| C[C@@H]1C[C@H](NC(=O)c2cc(C3CC3)on2)CCN1C(=O)C1CCCC(CN)C1 (stereo partly drawn) [compound 342, N-((2R,4R)-1-(3-(aminomethyl)cyclohexane-1-carbonyl)-2-methylpiperidin-4-yl)-5-cyclopropylisoxazole-3-carboxamide] | 0.552 |
| C[C@@H]1C[C@@H](NC(=O)c2cc(C3CC3)on2)CCN1C(=O)C1CCCC(CN)C1 (stereo partly drawn) [compound 343, N-((2R,4S)-1-(3-(aminomethyl)cyclohexane-1-carbonyl)-2-methylpiperidin-4-yl)-5-cyclopropylisoxazole-3-carboxamide] | 1.07 |
